Experimental findings from US4273704A, “N-Adamantane-substituted tetrapeptide amides” (G. D. Searle & Co., priority 1979, dated 1981) are described below.

The experiment concerns phenyl-p-benzoquinone-induced writhing. Kind of experiment: mouse phenyl-p-benzoquinone-induced writhing test (analgesic activity). Conditions: s.c.; 60 minutes; male CD-1 mice; dose which decreased writhing by ≥50% of control mean in 50% of the mice. Format: in vivo. On the procedure: This test is a modification of the procedure described by L. C. Hendershot and J. Forsaith, in J. PHARMACOL. EXP. THER., 125:237(1959).
Details of the test are as follows: Groups of 10 male CD-1 mice (Charles River) weighing 18-25 g. are pretreated subcutaneously (s.c.) or intragastrically (i.g.) with the vehicle control or the compound of interest in a volume of 10 ml/kg. Phenyl-p-benzoquinone (PBQ), 2.5 mg/kg is administered intraperitoneally (i.p.) 30 or 60 minutes later as a 0.025% solution in 5% ethanol. Starting 5 minutes after the PBQ challenge, each mouse is observed for a 10 minute period during which the number of writhes are counted. A "writhe" consists of a combination or sequence of arching the back, pelvic rotation, and hind limb extension. Significant analgesia is assumed when an animal writhing frequency is ≤50% of the daily control group mean. Estimates of the ED50 defined as the dose which decreased writhing by ≥50% of the control group mean in 50% of the mice are determined using the method of J. T. Litchfield and F. Wilcoxon, J. PHARMCOL. EXP. THER., 96:99(1949).
Background: In writhing tests, fewer writhes than in controls are read as antinociception.

As to `CN1CC[C@]23c4c5ccc(O)c4O[C@H]2[C@@H](O)C=C[C@H]3[C@H]1C5` [morphine], the “ED50 (95% confidence limits)” value is 0.1 mpk.
